# Reference: patent US20240247024A1, “INHIBITORS OF NICOTINAMIDE N-METHYL TRANSFERASE (NNMT)” (UNIVERSITEIT LEIDEN, priority 2021, published 2024)
# pIC50, pKi: −log10 of the molar value.
# Legend:
# [1] = molecular target: T1, NNMT (Homo sapiens, UniProt P40261); set-up: The enzymatic activity assays were performed using NNMT at a final concentration of 100 nM diluted in assay buffer; details: background section, cited from earlier work; for pIC50: known NNMT inhibitors, read-out: IC50 against NNMT
# T1 sequence (P40261 1-264): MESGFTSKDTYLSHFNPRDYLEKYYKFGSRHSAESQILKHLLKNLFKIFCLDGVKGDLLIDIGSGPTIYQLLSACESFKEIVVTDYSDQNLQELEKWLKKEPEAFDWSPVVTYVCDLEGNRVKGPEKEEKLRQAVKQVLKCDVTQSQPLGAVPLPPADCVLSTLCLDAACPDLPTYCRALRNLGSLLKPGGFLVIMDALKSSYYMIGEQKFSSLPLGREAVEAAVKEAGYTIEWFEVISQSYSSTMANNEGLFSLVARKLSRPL
# [2] = test system: diet-induced obese (DIO) mice; details: cited from earlier work
# [3] = test system: aged mouse model; details: cited from earlier work
# [4] = test system: HSC-2 oral cancer cells; details: cited from earlier work
# [5] = test system: high-fat DIO mice; details: cited from earlier work
# [6] = cited from earlier work
# [7] = test system: T24 human bladder cancer cell line; assay: MTT cell proliferation assay, T24; format: cell-based
# Description: (§1) UROTsa immortalized human urothelium cell line, HSC-2 human oral cancer cell line, T24 human bladder cancer cell line and A549 human lung cancer line were purchased from the American Type Culture Collection (ATCC, Rockville, MD, USA), and cultured in DMEM/F12 medium, supplemented with 10% fetal bovine serum and 50 μg/ml gentamicin, at 37° C. in a humidified 5% CO2 incubator. For each compound tested, powder was dissolved in DMSO at 100 mM concentration. This stock solution was then diluted in culture medium to final concentration values ranging between 1 μM and 100 μM. For each sample, DMSO was kept constant at 0.1% final concentration. The day before starting treatment, cells were seeded in 96-well plates, at a density of 2000 cells/well. Cells were allowed to attach overnight and then incubated with compounds at different final concentrations, or with DMSO only, for 24, 48 and 72 hours. All experiments were performed in triplicate.
# (§2) Cell proliferation was determined using a colorimetric assay with 3-(4,5-dimethylthiazol-2-yl)-2,5-diphenyl tetrazolium bromide (MTT). The MTT assay measures the conversion of MTT to insoluble formazan by dehydrogenase enzymes of the intact mitochondria of living cells. Cell proliferation was evaluated by measuring the conversion of the tetrazolium salt MTT to formazan crystals upon treatment with compounds or DMSO only for 24, 48 and 72 hours. Briefly, cells were incubated for 2 hours at 37° C. with 100 μl fresh culture medium containing 5 μl of MTT reagent (5 mg/ml in PBS). The medium was removed and 200 μl isopropanol were added. The amount of formazan crystals formed correlated directly with the number of viable cells. The reaction product was quantified by measuring the absorbance at 540 nm using an ELISA plate reader. Experiments were repeated three times. Results were expressed as percentage of the control (control equals 100% and corresponds to the absorbance value of each sample at time zero) and presented as mean values±standard deviation of three independent experiments performed in triplicate.
# (§3) Data were analysed using GraphPad Prism software for Windows (GraphPad Software, San Diego, CA). Significant differences between groups were determined using the one-way analysis of variance (ANOVA). A p value <0.05 was considered as statistically significant.
# [8] = test system: A549 human lung cancer line; assay: MTT cell proliferation assay, A549; format: cell-based
# Description: as §1, §2, §3
# [9] = test system: HSC-2 human oral cancer cell line; assay: MTT cell proliferation assay, HSC-2; format: cell-based
# Description: as §1, §2, §3
# [10] = test system: U2OS cells; details: cited from earlier work
# [11] = rapidly degraded by SAHH to adenosine and homocysteine; cited from earlier work
# [12] = cited from earlier work; remark: listed apart in the source
# [13] = cited from earlier work; remark: listed apart in the source
smiles,measurement,setting,value
Cc1cccc2ccc[n+](C)c12 [8-methyl-1-MQ],pIC50,[1],5.74
C[n+]1cccc2ccccc21 [Compound 1-MQ],pIC50,[1],4.92
"C[n+]1cccc2c(N)cccc21 [Compound 5-amino-1-MQ, 5-amino-1-MQ]",pIC50,[1],5.92
same,adipocyte size,[2],decreased
same,body weight and white adipose mass,[2],significantly reduced
same,plasma total cholesterol levels,[2],lowered
same,muscle regeneration,[3],accelerate muscle regeneration
Nc1ncnc2c1ncn2[C@@H]1O[C@H](CN(CC[C@H](N)C(=O)O)Cc2ccc3ccccc3c2)[C@@H](O)[C@H]1O [GYZ191],effect on cell viability,[4],significant inhibitory effect
COc1ccc(C(N)=O)cn1 [JBSNF-000088],pIC50,[1],5.62
same,body weight,[5],reduce
same,glucose tolerance,[5],normalize
same,insulin sensitivity,[5],improve
same,plasma levels of MNA,[5],reduce
NC(=O)c1cccc(C#CCN(CC[C@H](N)C(=O)O)C[C@H]2O[C@@H](n3cnc4c(N)ncnc43)[C@H](O)[C@@H]2O)c1 [LL320],cell permeability,[6],poor cell permeability
NC(=O)c1cccc(CCN(CCC[C@H](N)C(=O)O)C[C@H]2O[C@@H](n3cnc4c(N)ncnc43)[C@H](O)[C@@H]2O)c1 [MS2734],pIC50,[1],4.85
NC(=O)c1cccc(CCN(CC[C@H](N)C(=O)O)C[C@H]2O[C@@H](n3cnc4c(N)ncnc43)[C@H](O)[C@@H]2O)c1 [MS2756],pIC50,[1],3.80
CCOC(=O)[C@H](CCN(C/C=C/c1ccc(C#N)cc1)C[C@H]1O[C@@H](n2cnc3c(N)ncnc32)[C@H](O)[C@@H]1O)NC(=O)CC(C)(C)c1c(C)cc(C)cc1OC(C)=O [NB60],"% of DMSO control at 100 μM, T24, 24 h",[7]; 24 h incubation,100 % of DMSO control
same,"% of DMSO control at 100 μM, T24, 48 h",[7]; 48 h incubation,50 % of DMSO control
same,"% of DMSO control at 100 μM, T24, 72 h",[7]; 72 h incubation,29 % of DMSO control
same,"% of DMSO control at 100 μM, A549, 24 h",[8]; 24 h incubation,100 % of DMSO control
same,"% of DMSO control at 100 μM, A549, 48 h",[8]; 48 h incubation,100 % of DMSO control
same,"% of DMSO control at 100 μM, A549, 72 h",[8]; 72 h incubation,76 % of DMSO control
same,"% of DMSO control at 100 μM, HSC-2, 24 h",[9]; 24 h incubation,79 % of DMSO control
same,"% of DMSO control at 100 μM, HSC-2, 48 h",[9]; 48 h incubation,44 % of DMSO control
same,"% of DMSO control at 100 μM, HSC-2, 72 h",[9]; 72 h incubation,26 % of DMSO control
NC(=O)c1cccc(C#C[C@@H](CC[C@H](N)C(=O)O)C[C@H]2O[C@@H](n3cnc4c(N)ncnc43)[C@H](O)[C@@H]2O)c1 [NS1],pKi,"[1]; known bisubstrate inhibitors, read-out: Ki against NNMT",9.30
same,MNA levels in cells,[10],only moderately decreased
"Nc1ncnc2c1ncn2[C@@H]1O[C@H](CSCC[C@H](N)C(=O)O)[C@@H](O)[C@H]1O [SAH, S-adenosyl-1-homocysteine]",activity in cellular assays,[11],loses its activity
"Nc1ncnc2c1ncn2[C@@H]1O[C@H](C[C@@H](N)CC[C@H](N)C(=O)O)[C@@H](O)[C@H]1O [Sinefungin, sinefungin]",toxicity in animal models,[12],severe toxicity
same,cell membrane permeability,[13],low cell membrane permeability
